Assay results: US20110015162A1, “15,16-Methylene-17-hydroxy-19-nor-21-carboxylic acid-steroid Y-lactone derivative, use thereof and medicinal products containing the derivative” (Bayer Schering Pharma Aktiengesellschaft, priority 2007, published 2011)
Read-outs that look alike come from different tables or passages of the source.

What was measured:
[1] = biological target: T1, fusion protein from the PR-ligand-binding domain and a Gal4-transactivation domain (Homo sapiens, UniProt P06401); assay: Progestational action by transactivation test (CHO K1 reporter cells); format: cell-based; conditions: for Emax: read-out: Progesterone receptor Agonism efficacy
T1 construct: expressed in transfected cells; host or cells: CHO K1 cells, stably transfected
Method: 4. Determination of Progestational Action by Means of Transactivation Tests:
The culture medium used for culture of the cells used for the assay was DMEM (Dulbecco's Modified Eagle Medium: […] glucose; PAA, #E15-009) with 10% FCS (Biochrom, S0115, batch #615B), 4 mM L-glutamine, 1% penicillin/streptomycin, 1 mg/ml G418 and 0.5 μg/ml puromycin.
Reporter cell lines (CHO K1 cells stably transfected with a fusion protein from the PR-ligand-binding domain and a Gal4-transactivation domain and a reporter construct, which contained luciferase under the control of a Gal4-responsive promoter) were seeded at a density of 4×10^4 cells per well in white, opaque tissue culture plates each with 96 wells (PerkinElmer, #P12-106-017) and kept in culture medium with 3% DCC-FCS (serum treated with activated charcoal to remove interfering components contained in the serum). The test compounds were added eight hours later, and the cells were incubated with the compounds for 16 hours. The tests were carried out in triplicate. At the end of incubation the medium containing the effector was removed and replaced with lysis buffer. After luciferase assay substrate (Promega, #E1501) had been added, the 96-well plates were then put in a microplate luminometer (Pherastar, BMG Labtech), and the luminescence was measured. The IC50 values were evaluated using software for calculating dose-effect relations.

[2] = biological target: T2, androgen receptor (Homo sapiens, UniProt P10275); assay: Androgen receptor binding test; set-up: expressed in transfected cells
T2 sequence (P10275 1-920): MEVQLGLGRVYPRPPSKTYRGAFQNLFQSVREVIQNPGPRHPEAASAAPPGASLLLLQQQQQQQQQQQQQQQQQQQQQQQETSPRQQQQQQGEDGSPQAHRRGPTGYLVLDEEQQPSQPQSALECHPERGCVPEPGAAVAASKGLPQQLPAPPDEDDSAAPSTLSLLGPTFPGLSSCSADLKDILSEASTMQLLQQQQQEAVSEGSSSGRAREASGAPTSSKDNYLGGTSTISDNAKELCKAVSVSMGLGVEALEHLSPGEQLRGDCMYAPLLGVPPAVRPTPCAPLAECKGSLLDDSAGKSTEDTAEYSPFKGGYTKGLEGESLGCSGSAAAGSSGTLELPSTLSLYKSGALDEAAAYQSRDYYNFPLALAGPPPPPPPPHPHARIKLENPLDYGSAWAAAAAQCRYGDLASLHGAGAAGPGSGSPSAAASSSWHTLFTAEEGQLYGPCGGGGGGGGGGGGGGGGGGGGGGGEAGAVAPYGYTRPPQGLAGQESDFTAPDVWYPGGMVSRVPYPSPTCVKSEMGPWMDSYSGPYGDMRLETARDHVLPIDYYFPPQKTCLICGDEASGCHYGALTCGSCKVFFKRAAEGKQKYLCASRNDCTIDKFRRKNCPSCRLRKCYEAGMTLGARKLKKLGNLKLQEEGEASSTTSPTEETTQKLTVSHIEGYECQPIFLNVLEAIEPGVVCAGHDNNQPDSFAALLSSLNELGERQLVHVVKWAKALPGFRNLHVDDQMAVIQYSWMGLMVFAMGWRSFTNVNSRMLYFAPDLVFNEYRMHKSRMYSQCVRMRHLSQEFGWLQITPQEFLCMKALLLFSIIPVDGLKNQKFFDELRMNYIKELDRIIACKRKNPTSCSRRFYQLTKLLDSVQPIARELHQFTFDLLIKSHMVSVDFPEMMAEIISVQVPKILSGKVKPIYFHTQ
Method: Using cytosol from progesterone receptor-expressing insect cells (Hi5), competitive binding to the progesterone receptor was determined from the ability to displace ^3H-progesterone as reference substance from the receptor.
3. Androgen Receptor Binding Test: […]

T1 sequence (P06401 679-913 limits assumed): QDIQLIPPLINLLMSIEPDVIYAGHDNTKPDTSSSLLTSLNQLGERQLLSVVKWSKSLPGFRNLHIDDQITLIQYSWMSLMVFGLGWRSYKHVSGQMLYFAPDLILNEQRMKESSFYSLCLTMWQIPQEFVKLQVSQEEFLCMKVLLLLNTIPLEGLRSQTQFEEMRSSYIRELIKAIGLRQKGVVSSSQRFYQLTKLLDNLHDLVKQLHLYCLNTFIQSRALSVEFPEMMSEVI
T1 sequence (P04386 1-147 partner limits assumed): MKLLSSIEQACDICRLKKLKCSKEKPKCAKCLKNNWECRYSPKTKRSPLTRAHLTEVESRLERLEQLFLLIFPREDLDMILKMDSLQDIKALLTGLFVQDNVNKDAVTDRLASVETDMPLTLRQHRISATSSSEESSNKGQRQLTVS

Row | SMILES | Emax ([1]; CHO-K1, 16 h) [%] | IC50 [2] [nM] | EC50 ([1]; CHO K1 reporter cells, 16 hours incubation, read-out: Progesterone receptor Agonism EC50) [nM] | Emax ([1]; CHO K1 reporter cells, 16 hours incubation) [%] | IC50 ([2]; reference substance 3H-testosterone, cytosol from AR-expressing insect cells (Hi5), read-out: Androgen receptor IC50) [nM] | EC50 [1] [nM]
1 | CC[C@]12CC[C@H]3[C@H]([C@@H]1[C@@H]1C[C@@H]1[C@@]21C=CC(=O)O1)[C@H](C1CC1)CC1=CC(=O)CC[C@@H]13 [Example 7A, 17β-Hydroxy-7α-cyclopropyl-18-methyl-15β,16β-methylene-19-nor-17α-pregna-4,20(Z)-dien-3-one-21-carboxylic acid γ-lactone] | 5 | 170 |  |  |  | 
2 | C[C@]12CC[C@H]3[C@@H](C[C@@H](CO)C4=CC(=O)CC[C@@H]43)[C@@H]1[C@@H]1C[C@@H]1[C@@]21C=CC(=O)O1 [Example 21, 17β-Hydroxy-6β-hydroxymethylene-15β,16β-methylene-19-nor-17α-pregna-4,20(Z)-dien-3-one-21-carboxylic acid γ-lactone] |  |  | 780 | 21 | 1000 | 
3 | CC[C@]12CC[C@H]3[C@H]([C@@H]1[C@@H]1C[C@@H]1[C@@]21C=CC(=O)O1)[C@H](C)CC1=CC(=O)CC[C@@H]13 [Example 4A, 7α,18-Bismethyl-17β-hydroxy-15β,16β-methylene-19-nor-17α-pregna-4,20(Z)-dien-3-one-21-carboxylic acid γ-lactone] | 71.1 | 60 |  |  |  | 39
4 | CC[C@@H]1CC2=CC(=O)CC[C@@H]2[C@H]2CC[C@@]3(C)[C@@H]([C@@H]4C[C@@H]4[C@@]34C=CC(=O)O4)[C@H]12 [Example 24A, 7α-Ethyl-17β-hydroxy-15β,16β-methylene-19-nor-17α-pregna-4,20(Z)-dien-3-one-21-carboxylic acid γ-lactone] | 42.7 | 160 |  |  |  | 140
5 | CC[C@]12CC[C@H]3[C@@H]([C@H]4C[C@H]4C4=CC(=O)CC[C@@H]43)[C@@H]1[C@@H]1C[C@@H]1[C@@]21C=CC(=O)O1 [Example 1, 6β,7β;15β,16β-Bismethylene-17β-hydroxy-18-methyl-19-nor-17α-pregna-4,20(Z)-dien-3-one-21-carboxylic acid γ-lactone] | 62.8 | 280 |  |  |  | 1.5
6 | C=C[C@@H]1CC2=CC(=O)CC[C@@H]2[C@H]2CC[C@@]3(C)[C@@H]([C@@H]4C[C@@H]4[C@@]34C=CC(=O)O4)[C@@H]21 [Example 25A, 17β-Hydroxy-15β,16β-methylene-7α-vinyl-19-nor-17α-pregna-4,20(Z)-dien-3-one-21-carboxylic acid γ-lactone] | 46.5 | 37 |  |  |  | 560
7 | C=C[C@@H]1CC2=CC(=O)CC[C@@H]2[C@H]2CC[C@@]3(C)[C@@H]([C@H]4C[C@H]4[C@@]34C=CC(=O)O4)[C@@H]21 [Example 16A, 17β-Hydroxy-7α-vinyl-15α,16α-methylene-19-nor-17α-pregna-4;20(Z)-dien-3-one-21-carboxylic acid γ-lactone] | 59.3 | 39 |  |  |  | 140
